Data set [1] deals with Human immunodeficiency virus 1. The experiment in a line: Antiviral activity against HIV1 NL4.3 virus infected in human CEM-GFP cells assessed as reduction in p24 antigen level at 100 nM measured after 72 hrs by ELISA relative to control. The class given is functional. As to conditions: Human immunodeficiency virus 1, NL4.3, CEM-GFP. In general terms: In an ELISA, binding on a coated surface is turned into a signal by an enzyme label.

The nature of data set [2]: Cytotoxicity against human TZM-bl cells harboring beta-galactosidase/luciferase reporter gene assessed as cell viability at 100 nM measured after 48 hrs by MTT assay relative to control. It is filed as toxicity, cell-based. As to conditions: read-out: Activity.
For data set [3], the system named is Human immunodeficiency virus 1. The data set is described as follows: Antiviral activity against HIV1 NL4.3 infected in human TZM-bl cells assessed as inhibition of viral infection at 100 nM measured after 48 hrs by steady-glo luciferase reporter gene assay relative to control. As to conditions: Human immunodeficiency virus 1, NL4.3, TZM-bl. It is filed as functional. On the technique in general: In a reporter assay the amount or activity of a reporter protein is the signal.

A short description of data set [4]: Cytotoxicity against human CEM-GFP cells assessed as cell viability at 100 nM measured after 48 hrs by MTT assay relative to control. It is filed as toxicity, cell-based. The following applies: read-out: Activity.
Data set [5] concerns the target Human immunodeficiency virus type 1 reverse transcriptase (Human immunodeficiency virus 1) (UniProt Q72547). The data set is described as follows: Inhibition of HIV-1 reverse transcriptase RNA-dependent DNA polymerase activity assessed as reduction in biotin-dUTP incorporation at 100 nM using poly(A)/oligo (dT)15 as template/primer by ELISA relative to control.
The subject of data set [6] is Human immunodeficiency virus 1. The data set is described as follows: Antiviral activity against HIV1 NL4.3 virus infected in human CEM-GFP cells assessed as reduction in p24 antigen level measured after 72 hrs by ELISA. It is filed as functional, organism-based. The following applies: Human immunodeficiency virus 1, NL4.3, CEM-GFP.
In data set [7] the target is Human immunodeficiency virus type 1 protease (Human immunodeficiency virus 1) (UniProt Q72874). The experiment in a line: Inhibition of HIV-1 protease at 100 nM using fluorophore-labelled peptide substrate by fluorescence assay relative to control.
For data set [8], the target named is Human immunodeficiency virus type 1 integrase (Human immunodeficiency virus 1) (UniProt Q7ZJM1). The data set is described as follows: Inhibition of full-length recombinant HIV1 integrase at 100 nM using target substrate DNA preincubated for 5 mins followed by substrate addition and measured after 30 mins by colorimetry relative to control. The following applies: time 35.0 min.
Sequence of Human immunodeficiency virus type 1 integrase (Human immunodeficiency virus 1) (Q7ZJM1 as listed by the source): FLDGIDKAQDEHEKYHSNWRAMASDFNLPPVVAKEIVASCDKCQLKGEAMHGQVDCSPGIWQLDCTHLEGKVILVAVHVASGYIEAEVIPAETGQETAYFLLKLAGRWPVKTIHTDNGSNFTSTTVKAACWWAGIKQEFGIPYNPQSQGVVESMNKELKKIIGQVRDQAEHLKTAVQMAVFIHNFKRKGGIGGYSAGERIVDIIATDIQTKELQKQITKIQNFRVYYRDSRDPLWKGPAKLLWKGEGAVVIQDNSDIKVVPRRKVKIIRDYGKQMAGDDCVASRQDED

The nature of data set [9]: Cytotoxicity against human CEM-GFP cells assessed as reduction in cell viability measured after 48 hrs by MTT assay. It is filed as toxicity, cell-based.
Data set [10] can be described thus: Therapeutic index, ratio of CC50 for cytotoxicity against human CEM-GFP cells to IC50 for antiviral activity against HIV1 NL4.3 virus infected in human CEM-GFP cells assessed as reduction in p24 antigen level. It is filed as toxicity, cell-based. As to conditions: read-out: TI.
The target of data set [11] is Human immunodeficiency virus type 1 protease (Human immunodeficiency virus 1) (UniProt Q72874). As to conditions: dose 500.0 nM.
Description: Inhibition of HIV-1 protease at 500 nM using fluorophore-labelled peptide substrate by fluorescence assay relative to control

With `FC(F)(F)c1cccc(-c2nc(Cc3cc(-c4ccccc4)no3)no2)c1`, the inhibition (usually how much of the control response was suppressed) at 0.1 µM in [1] amounted to 39.1%; in data set [3], 47.4%. Further, the viability at 48 h, 0.1 µM amounted to 84.7% in data set [2] and 95.9% in data set [4].

`COc1ccc(-c2cc(Cc3noc(-c4cccc(C(F)(F)F)c4)n3)on2)cc1`: the inhibition at 0.1 µM worked out at 27% in data set [1] and 24.3% in data set [3]. Moreover, the viability at 48 h, 0.1 µM in data set [2] is 83%; in [4], 96.6%.

On to `FC(F)(F)c1cccc(-c2nc(Cc3cc(-c4ccc(Cl)cc4)no3)no2)c1`, for which the inhibition at 0.1 µM in data set [1] turned out to be 66.8%; in data set [3] it was 82%. Besides, the inhibition was determined as 5.44% in [5], 6.66% in [7] and 9.58% in [8]. Also, in [6], the IC50 (as a rule, the concentration that inhibits the measured activity by half) was 0.0857 µM. The viability at 48 h, 0.1 µM in data set [2] was 84.4%; in [4], 85.1%. Besides, the CC50 (in general, the concentration at which the toxic effect on the cells reaches its halfway point) at 48 h in data set [9] turned out to be 13.3 µM. Further, in data set [10], the selectivity ratio is 155.

Take `Cc1ccc(-c2cc(Cc3noc(-c4cccc(C(F)(F)F)c4)n3)on2)cc1`: the inhibition at 0.1 µM was determined as 50% in data set [1] and 65.4% in data set [3]. For the same molecule, the viability at 48 h, 0.1 µM in data set [2] turned out to be 82.1%; in data set [4] it was 86.7%.

`FC(F)(F)c1cccc(-c2nc(Cc3cc(-c4cccs4)no3)no2)c1`: the inhibition at 0.1 µM in [1] came to 17.5%; in [3] it was 27.5%. For the same molecule, the viability at 48 h, 0.1 µM in [2] came out at 88.2%; in data set [4], 88.3%.

Take `CCNC(=O)c1noc(-c2cc(C(C)C)c(O)cc2O)c1-c1ccc(CN2CCOCC2)cc1` [LUMINESPIB]: the results for the inhibition at 0.1 µM in [1] and in data set [3] were 82.5% and 88.9%, respectively. For the same molecule, the values for the viability at 48 h, 0.1 µM in data set [2] and in [4] were 92.7% and 94.1%, respectively. Besides, the CC50 at 48 h in [9] stood at 31.1 µM. The selectivity ratio in data set [10] was 470.

In the case of `CC(C)(C)NC(=O)[C@@H]1CN(Cc2cccnc2)CCN1C[C@@H](O)C[C@@H](Cc1ccccc1)C(=O)N[C@H]1c2ccccc2C[C@H]1O`, the inhibition in data set [11] came out at 87%.

For the origin of these results see ChEMBL document CHEMBL5154697, “Synthesis and anti-HIV activity of a new isoxazole containing disubstituted 1,2,4-oxadiazoles analogs” (Bioorg Med Chem, 2022).
